Molecules are shown by their SMILES.

The subject of one data set is PC-3. Description: Antiproliferative activity against human PC-3 cells. Type of data set: functional, cell-based.
The subject of data set [1] is HCT-116. Description: Antiproliferative activity against human HCT-116 cells. The format is functional, cell-based.
The nature of data set [2]: Antiproliferative activity against mouse P388 cells assessed as reduction in cell viability measured after 72 hrs. The format is functional, cell-based. The conditions noted are these: time 72 hrs.
A further data set concerns P388/ADR. The data set can be described thus: Antiproliferative activity against mouse P388/ADR cells assessed as reduction in cell viability measured after 72 hrs. The conditions noted are these: time 72 hrs. The format is functional, cell-based.
A further data set relates to A549. The data set can be described thus: Antiproliferative activity against human A549 cells. The format is functional, cell-based.
The next data set relates to MCF7. The data set can be described thus: Anticancer activity against human MCF7 cells. Type of data set: functional, cell-based.
Data set [3] deals with MDA-MB-231. Description: Antiproliferative activity against human MDA-MB-231 cells assessed as reduction in cell viability. The format is functional, cell-based.
The test system of another data set is NCI-H460. The data set can be described thus: Antiproliferative activity against human NCI-H460 cells. Type of data set: functional, cell-based.
Data set [4] is described as follows: Antiproliferative activity against human U-87 MG cells. The format is functional, cell-based, U-87MG ATCC.
In the next data set the test system is HT-29. Description: Antiproliferative activity against human HT-29 cells assessed as reduction in cell viability. The format is functional, cell-based.
Data set [5] concerns MDA-MB-231. Description: Antiproliferative activity against human MDA-MB-231 cells. The following applies: Homo sapiens, MDA-MB-231. The format is functional, cell-based.
Data set [6] is described as follows: Antiproliferative activity against human MRC5 cells assessed as reduction in cell viability. Type of data set: toxicity, cell-based.
Data set [7] deals with HCT-116. The data set can be described thus: Antiproliferative activity against human HCT-116 cells assessed as reduction in cell viability. The format is functional, cell-based. The conditions noted are these: Homo sapiens, HCT-116.

One may read the IC50 as the concentration needed to halve the response being measured. As for `C[C@H]1[C@@H](OC(=O)CCC(=O)O)O[C@@H]2O[C@@]3(C)CC[C@H]4[C@H](C)CC[C@@H]1[C@@]24OO3`, the IC50 in the data set with PC-3 and in the data set on HCT-116 [1] was 5300 nM each time.
Broadly, the GI50 is the concentration giving 50% growth inhibition. For `C[C@H]1[C@@H](Oc2ccc(C(=O)N3CCN(c4ccccc4)CC3)cc2)O[C@@H]2O[C@@]3(C)CC[C@H]4[C@H](C)CC[C@@H]1[C@@]24OO3`, the GI50 (in data set [2]; in the data set with P388/ADR) was 22.1 nM each time.
With `CC1=C(CCOC(=O)CCC(=O)O[C@@H]2O[C@@H]3O[C@@]4(C)CC[C@H]5[C@H](C)CC[C@@H]([C@H]2C)[C@@]35OO4)C(=O)C(C(C)C)=CC1=O`, the IC50 in the data set with PC-3 and with HCT-116 [1] was 2400 nM throughout.
For `CC1=C(CCCCOC(=O)C[C@H]2O[C@@H]3O[C@@]4(C)CC[C@H]5[C@H](C)CC[C@@H]([C@H]2C)[C@@]35OO4)C(=O)C(C(C)C)=CC1=O`, the half-maximal inhibitory concentration (IC50) with PC-3 and with HCT-116 [1] was over 100000 nM each time.
As to `CC1=C(CCCOC(=O)CCC(=O)O[C@@H]2O[C@@H]3O[C@@]4(C)CC[C@H]5[C@H](C)CC[C@@H]([C@H]2C)[C@@]35OO4)C(=O)C(C(C)C)=CC1=O`, the IC50 in the data set with PC-3 and in the data set with HCT-116 [1] was over 100000 nM throughout.
In the case of `CC1=C(CCCOC(=O)C[C@H]2O[C@@H]3O[C@@]4(C)CC[C@H]5[C@H](C)CC[C@@H]([C@H]2C)[C@@]35OO4)C(=O)C(C(C)C)=CC1=O`, the IC50 in the data set with PC-3 and in the data set on HCT-116 [1] was over 100000 nM in each case.
For the compound `CC1=C(CCCO[C@H]2O[C@@H]3O[C@@]4(C)CC[C@H]5[C@H](C)CC[C@@H]([C@H]2C)[C@@]35OO4)C(=O)C(C(C)C)=CC1=O`, the IC50 in the data set with PC-3 and with HCT-116 [1] was over 100000 nM in each case.
Take `CC1=C(CCCCOC(=O)CCC(=O)O[C@@H]2O[C@@H]3O[C@@]4(C)CC[C@H]5[C@H](C)CC[C@@H]([C@H]2C)[C@@]35OO4)C(=O)C(C(C)C)=CC1=O`: the IC50 with PC-3 and in the data set on HCT-116 [1] was over 100000 nM in each case.
As to `C.C[C@H]1[C@@H](CC(=O)O[C@@H]2C[C@@H](OC(=O)C[C@H]3O[C@@H]4O[C@@]5(C)CC[C@H]6[C@H](C)CC[C@@H]([C@H]3C)[C@@]46OO5)[C@H](C)O[C@H]2O[C@H](C)CCCCC(=O)O)O[C@@H]2O[C@@]3(C)CC[C@H]4[C@H](C)CC[C@@H]1[C@@]24OO3`, the IC50 in the data set with A549, in the data set on MCF7 and in the data set with MDA-MB-231 [3] was 5500 nM in each case.
As to `C[C@H]1[C@@H](Oc2ccc(C(=O)N3CCN(Cc4ccccc4)CC3)cc2)O[C@@H]2O[C@@]3(C)CC[C@H]4[C@H](C)CC[C@@H]1[C@@]24OO3`, the GI50 (in data set [2]; with P388/ADR) was 22.1 nM each time.
Consider `Cc1ccccc1NS(=O)(=O)/C=C/c1cccc(OCCO[C@@H]2O[C@@H]3O[C@@]4(C)CC[C@H]5[C@H](C)CC[C@@H]([C@H]2C)[C@@]35OO4)c1`, for which the IC50 (with NCI-H460; with A549; in data set [4]; in the data set with HT-29; in the data set with MDA-MB-231 [5]) was 50 nM throughout.
`C[C@H]1[C@H](OCCNC(=O)c2ccc(COc3ccc(/C=C/S(=O)(=O)Nc4ccc(OC(F)(F)F)cc4)cc3)cc2)O[C@@H]2O[C@@]3(C)CC[C@H]4[C@H](C)CC[C@@H]1[C@@]24OO3`: the IC50 (in data set [4]; in the data set on HT-29; in the data set with MDA-MB-231 [5]) was 90 nM throughout.
Consider `C[C@H]1[C@H](OCCOc2cccc(/C=C/S(=O)(=O)Nc3ccc(OC(F)(F)F)cc3)c2)O[C@@H]2O[C@@]3(C)CC[C@H]4[C@H](C)CC[C@@H]1[C@@]24OO3`, for which the IC50 (in the data set with NCI-H460; with A549; in [4]; in the data set with HT-29; with MDA-MB-231 [5]) was 50 nM each time.
In the case of `Cc1c(Cl)c(=O)oc2c(OCc3cn(CCCO[C@@H]4O[C@@H]5O[C@@]6(C)CC[C@H]7[C@H](C)CC[C@@H]([C@H]4C)[C@@]57OO6)nn3)cccc12`, the IC50 (in data set [6]; with MDA-MB-231 [3]; with HCT-116 [7]; with HT-29) was 430 nM each time.
In the case of `C[C@H]1[C@@H](CC(=O)O[C@@H]2C[C@@H](OC(=O)C[C@H]3O[C@@H]4O[C@@]5(C)CC[C@H]6[C@H](C)CC[C@@H]([C@H]3C)[C@@]46OO5)[C@H](C)O[C@H]2O[C@H](C)CCCCC2OCOO2)O[C@@H]2O[C@@]3(C)CC[C@H]4[C@H](C)CC[C@@H]1[C@@]24OO3` (stereo partly drawn), the IC50 in the data set with A549, in the data set on MCF7 and in the data set with MDA-MB-231 [3] was 5500 nM each time.
As to `C[C@H]1[C@H](OCCOc2cccc(/C=C/S(=O)(=O)Nc3ccccc3)c2)O[C@@H]2O[C@@]3(C)CC[C@H]4[C@H](C)CC[C@@H]1[C@@]24OO3`, the IC50 (with NCI-H460; in the data set on A549; in data set [4]; in the data set on HT-29; in the data set with MDA-MB-231 [5]) was 50 nM in each case.
In the case of `C[C@H]1[C@H](OCCOc2cccc(/C=C/S(=O)(=O)Nc3c(Cl)cccc3Cl)c2)O[C@@H]2O[C@@]3(C)CC[C@H]4[C@H](C)CC[C@@H]1[C@@]24OO3`, the IC50 (with NCI-H460; with A549; in [4]; in the data set on HT-29; with MDA-MB-231 [5]) was 50 nM each time.
As for `C[C@H]1[C@H](OCCOc2cccc(/C=C/S(=O)(=O)Nc3ccccc3Cl)c2)O[C@@H]2O[C@@]3(C)CC[C@H]4[C@H](C)CC[C@@H]1[C@@]24OO3`, the IC50 (in the data set on NCI-H460; with A549; in [4]; in the data set on HT-29; in the data set with MDA-MB-231 [5]) was 50 nM throughout.
As to `Cc1ccc(F)c(NS(=O)(=O)/C=C/c2ccc(OCc3ccc(C(=O)NCCO[C@@H]4O[C@@H]5O[C@@]6(C)CC[C@H]7[C@H](C)CC[C@@H]([C@H]4C)[C@@]57OO6)cc3)cc2)c1`, the IC50 (with NCI-H460; in the data set with A549; in [4]; with HT-29; with MDA-MB-231 [5]) was 90 nM each time.
Regarding `C[C@H]1[C@H](OCCOc2cccc(/C=C/S(=O)(=O)Nc3cccc(Cl)c3)c2)O[C@@H]2O[C@@]3(C)CC[C@H]4[C@H](C)CC[C@@H]1[C@@]24OO3`, the IC50 (in the data set with NCI-H460; with A549; in data set [4]; in the data set on HT-29; in the data set with MDA-MB-231 [5]) was 50 nM each time.
Regarding `Cc1c(C)c2cccc(OCc3cn(CCCO[C@@H]4O[C@@H]5O[C@@]6(C)CC[C@H]7[C@H](C)CC[C@@H]([C@H]4C)[C@@]57OO6)nn3)c2oc1=O`, the IC50 (in data set [6]; with MDA-MB-231 [3]; in the data set with HCT-116 [7]; with HT-29) was 430 nM in each case.
Turning to `C[C@H]1[C@@H](Oc2ccc(C(=O)N3CCN(C/C=C/c4ccccc4)CC3)cc2)O[C@@H]2O[C@@]3(C)CC[C@H]4[C@H](C)CC[C@@H]1[C@@]24OO3`, the GI50 (in [2]; with P388/ADR) was 22.1 nM throughout.
In the case of `CC1=C(CCCCO[C@H]2O[C@@H]3O[C@@]4(C)CC[C@H]5[C@H](C)CC[C@@H]([C@H]2C)[C@@]35OO4)C(=O)C(C(C)C)=CC1=O`, the IC50 with PC-3 and in the data set on HCT-116 [1] was over 100000 nM throughout.
As for `C[C@H]1[C@H](OCCNC(=O)c2ccc(COc3ccc(/C=C/S(=O)(=O)Nc4ccc(Cl)cc4)cc3)cc2)O[C@@H]2O[C@@]3(C)CC[C@H]4[C@H](C)CC[C@@H]1[C@@]24OO3`, the concentration for half-maximal inhibition (IC50) (with NCI-H460; in data set [4]; in the data set on HT-29; in the data set on MDA-MB-231 [5]) was 90 nM each time.
On to `Cc1ccc(F)c(NS(=O)(=O)/C=C/c2cccc(OCCOC3O[C@@H]4O[C@@]5(C)CC[C@H]6[C@H](C)CC[C@@H]([C@H]3C)[C@@]46OO5)c2)c1` (stereo partly drawn), for which the IC50 (in the data set on NCI-H460; in the data set on A549; in [4]; in the data set with HT-29; in the data set on MDA-MB-231 [5]) was 50 nM throughout.
For the compound `Cc1cc(=O)oc2c(OCc3cn(CCO[C@@H]4O[C@@H]5O[C@@]6(C)CC[C@H]7[C@H](C)CC[C@@H]([C@H]4C)[C@@]57OO6)nn3)cccc12`, the half-maximal inhibitory concentration (IC50) (in data set [6]; with MDA-MB-231 [3]; in the data set on HCT-116 [7]; with HT-29) was 430 nM in each case.
For the compound `CCOC(=O)c1cc2cccc(OCc3cn(CCCO[C@@H]4O[C@@H]5O[C@@]6(C)CC[C@H]7[C@H](C)CC[C@@H]([C@H]4C)[C@@]57OO6)nn3)c2oc1=O`, the IC50 (in data set [6]; in the data set on MDA-MB-231 [3]; in the data set on HCT-116 [7]; in the data set with HT-29) was 430 nM throughout.
As for `C[C@H]1[C@H](OCCNC(=O)c2ccc(COc3ccc(/C=C/S(=O)(=O)Nc4cccc(Cl)c4)cc3)cc2)O[C@@H]2O[C@@]3(C)CC[C@H]4[C@H](C)CC[C@@H]1[C@@]24OO3`, the IC50 with NCI-H460, in the data set with A549, in the data set with HT-29 and in the data set on MDA-MB-231 [5] was 90 nM each time.
Take `C[C@@H]1CC[C@H]2[C@@H](C)C(OCCOc3cccc(/C=C/S(=O)(=O)Nc4ccc(Cl)cc4)c3)O[C@@H]3O[C@@]4(C)CC[C@@H]1[C@]32OO4` (single isomer, unassigned): the IC50 (with NCI-H460; in the data set with A549; in data set [4]; with HT-29; with MDA-MB-231 [5]) was 50 nM each time.
On to `COc1cc([C@@H]2c3cc4c(cc3[C@@H](O[C@@H]3O[C@@H]5CO[C@@H](C)O[C@H]5[C@H](O)[C@H]3O)[C@H]3COC(=O)[C@H]23)OCO4)cc(OC)c1O` [ETOPOSIDE], for which, in the data set on MCF7, the midpoint of inhibition, the IC50, lay at 830 nM.
Turning to `CC1=CC(=O)C(C(C)C)=CC1=O` [THYMOQUINONE], the IC50 with PC-3 and in the data set on HCT-116 [1] was 50100 nM in each case.

The record behind these values is ChEMBL document CHEMBL5244230, “Artemisinin-derived hybrids and their anticancer activity” (Eur J Med Chem, 2020).
